In PMC8221158, “Novel pyrrolizines bearing 3,4,5-trimethoxyphenyl moiety: design, synthesis, molecular docking, and biological evaluation as potential multi-target cytotoxic agents” (Journal of Enzyme Inhibition and Medicinal Chemistry, 2021):

Target: T1, Aurora A (Homo sapiens, UniProt O14965)
T1 sequence (O14965 1-403): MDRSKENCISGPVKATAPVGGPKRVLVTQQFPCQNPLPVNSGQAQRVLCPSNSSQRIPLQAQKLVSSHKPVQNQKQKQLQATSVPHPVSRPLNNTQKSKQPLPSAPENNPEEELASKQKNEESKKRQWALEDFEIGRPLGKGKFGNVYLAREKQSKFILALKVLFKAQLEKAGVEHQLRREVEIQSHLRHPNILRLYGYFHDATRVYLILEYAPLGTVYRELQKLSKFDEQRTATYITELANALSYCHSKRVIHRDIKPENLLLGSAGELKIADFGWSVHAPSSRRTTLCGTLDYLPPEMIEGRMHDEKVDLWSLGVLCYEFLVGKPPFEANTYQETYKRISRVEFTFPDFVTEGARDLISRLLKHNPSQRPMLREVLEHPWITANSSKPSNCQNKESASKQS
Test: Kinase profiling test
Assay type: biochemical
Conditions: stated as inhibition
Description: The test was performed using the radiolabeled ATP determination method (KINEXUS Bioinformatics Corporation, Vancouver, Canada). The test was performed following the previous reports[13]^,[20].
The three compounds were tested at the same concentration (10 μM) against the same 20 kinases used in the previous report. The test was performed by KINEXUS Bioinformatics Corporation (Vancouver, Canada), following previous reports[13]^,[20].

SMILES: COc1cc(C(=O)Nc2c(C#N)c3n(c2C(=O)Nc2ccc(Cl)cc2)CCC3)cc(OC)c1OC [16d, N-(4-Chlorophenyl)-7-cyano-6-(3,4,5-trimethoxybenzamido) -2,3-dihydro-1H-pyrrolizine-5-carboxamide]
- inhibition at 10 µM: 14%
